# In ChEMBL document CHEMBL5226369, “Tetracyclic Steroids Bearing a Bicyclo[4.4.1] Ring System as Potent Antiosteoporosis Agents from the Deep-Sea-Derived Fungus Rhizopus sp. W23” (J Nat Prod, 2023):
# The source made the active and inactive calls. The rule behind the calls is not given here.
# Experiments:
# A-431 = test: Antiproliferative activity against human A-431 cells by MTT assay; format: functional, cell-based
# A549 = test: Antiproliferative activity against human A549 cells by MTT assay; format: functional, cell-based
# MDA-MB-231 = test: Antiproliferative activity against human MDA-MB-231 cells by MTT assay; format: functional, cell-based
# MCF7 = test: Antiproliferative activity against human MCF7 cells by MTT assay; format: functional, cell-based
# PANC-1 = test: Antiproliferative activity against human PANC-1 cells by MTT assay; format: functional, cell-based
# HepG2 = test: Antiproliferative activity against human HepG2 cells by MTT assay; format: functional, cell-based
# HCT-116 = test: Antiproliferative activity against human HCT-116 cells by MTT assay; format: functional, cell-based
# NCI-H460 = test: Antiproliferative activity against human NCI-H460 cells by MTT assay; format: functional, cell-based
# NCI-H1299 = test: Antiproliferative activity against human NCI-H1299 cells by MTT assay; format: functional, cell-based
# [1] = Antiproliferative activity against human QGY-7701 cells by MTT assay; format: functional, cell-based; settings: QGY7701
# BGC-823 = test: Antiproliferative activity against human BGC-823 cells by MTT assay; format: functional, cell-based
# [2] = Antiproliferative activity against human SKGT4 cells by MTT assay; format: functional, cell-based
# A-375 = test: Antiproliferative activity against human A-375 cells by MTT assay; format: functional, cell-based
# U2OS = test: Antiproliferative activity against human U2OS cells by MTT assay; format: functional, cell-based
# HL-60 = test: Antiproliferative activity against human HL-60 cells by MTT assay; format: functional, cell-based
# K562 = test: Antiproliferative activity against human K562 cells by MTT assay; format: functional, cell-based
# KYSE-450 = test: Antiproliferative activity against human KYSE-450 cells by MTT assay; format: functional, cell-based
# PC-3 = test: Antiproliferative activity against human PC-3 cells by MTT assay; format: functional, cell-based
# BMSC [3] = test: Anti-osteoporosis activity against C57BL/6J mouse BMSC cells assessed as increase in matrix mineralization of osteoblasts at 20 uM incubated for 14 days by Alizarin Red S staining based analysis; format: functional, cell-based; settings: time 14.0 day
# [4] = (§1) Anti-osteoporosis activity against C57BL/6J mouse BMSC cells assessed as increase in osteogenic mineralization incubated for 14 days by Alizarin Red S staining based analysis; format: functional; settings: 336 h, time 14 day, read-out: MEC
# BMSC [5] = test: as §1; format: functional; settings: time 14.0 day
# [6] = Inhibition of adipogenic differentiation in C57BL/6J mouse BMSC cells at 5 uM measured after 6 days by Oil Red O staining based light microscopy; format: functional; settings: 144 h, time 6 day
structure (smiles),measurement,setting,value
C/C(=C\C(=O)O)[C@H]1CC[C@H]2C3=CC(=O)[C@H]4CC(=CC[C@H](O)C4)[C@H]3CC[C@]12C,IC50,A-431,> 20 µM
same,IC50,A549,> 20 µM
same,IC50,MDA-MB-231,> 20 µM
same,IC50,MCF7,> 20 µM
same,IC50,PANC-1,> 20 µM
same,IC50,HepG2,> 20 µM
same,IC50,HCT-116,> 20 µM
same,IC50,NCI-H460,> 20 µM
same,IC50,NCI-H1299,> 20 µM
same,IC50,[1],> 20 µM
same,IC50,BGC-823,> 20 µM
same,IC50,[2],> 20 µM
same,IC50,A-375,> 20 µM
same,IC50,U2OS,> 20 µM
same,IC50,HL-60,> 20 µM
same,IC50,K562,> 20 µM
same,IC50,KYSE-450,> 20 µM
same,IC50,PC-3,> 20 µM
C/C(=C\[C@H](O)[C@@H](C)O)[C@H]1CC[C@H]2C3=CC(=O)[C@H]4CC(=CC[C@H](O)C4)[C@H]3CC[C@]12C,IC50,A-431,> 20 µM
same,IC50,A549,> 20 µM
same,IC50,MDA-MB-231,> 20 µM
same,IC50,MCF7,> 20 µM
same,IC50,PANC-1,> 20 µM
same,IC50,HepG2,> 20 µM
same,IC50,HCT-116,> 20 µM
same,IC50,NCI-H460,> 20 µM
same,IC50,NCI-H1299,> 20 µM
same,IC50,[1],> 20 µM
same,IC50,BGC-823,> 20 µM
same,IC50,[2],> 20 µM
same,IC50,A-375,> 20 µM
same,IC50,U2OS,> 20 µM
same,IC50,HL-60,> 20 µM
same,IC50,K562,> 20 µM
same,IC50,KYSE-450,> 20 µM
same,IC50,PC-3,> 20 µM
C/C(=C\[C@@H](O)[C@@H](C)O)[C@H]1CC[C@H]2C3=CC(=O)[C@H]4CC(=CC[C@H](O)C4)[C@H]3CC[C@]12C,IC50,A-431,> 20 µM
same,IC50,A549,> 20 µM
same,IC50,MDA-MB-231,> 20 µM
same,IC50,MCF7,> 20 µM
same,IC50,PANC-1,> 20 µM
same,IC50,HepG2,> 20 µM
same,IC50,HCT-116,> 20 µM
same,IC50,NCI-H460,> 20 µM
same,IC50,NCI-H1299,> 20 µM
same,IC50,[1],> 20 µM
same,IC50,BGC-823,> 20 µM
same,IC50,[2],> 20 µM
same,IC50,A-375,> 20 µM
same,IC50,U2OS,> 20 µM
same,IC50,HL-60,> 20 µM
same,IC50,K562,> 20 µM
same,IC50,KYSE-450,> 20 µM
same,IC50,PC-3,> 20 µM
C/C(=C\[C@H](O)[C@H](C)O)[C@H]1CC[C@H]2C3=CC(=O)[C@H]4CC(=CC[C@H](O)C4)[C@H]3CC[C@]12C [NEOCYCLOCITRINOL B],IC50,A-431,> 20 µM
same,IC50,A549,> 20 µM
same,IC50,MDA-MB-231,> 20 µM
same,IC50,MCF7,> 20 µM
same,IC50,PANC-1,> 20 µM
same,IC50,HepG2,> 20 µM
same,IC50,HCT-116,> 20 µM
same,IC50,NCI-H460,> 20 µM
same,IC50,NCI-H1299,> 20 µM
same,IC50,[1],> 20 µM
same,IC50,BGC-823,> 20 µM
same,IC50,[2],> 20 µM
same,IC50,A-375,> 20 µM
same,IC50,U2OS,> 20 µM
same,IC50,HL-60,> 20 µM
same,IC50,K562,> 20 µM
same,IC50,KYSE-450,> 20 µM
same,IC50,PC-3,> 20 µM
CO[C@H](/C=C(\C)[C@H]1CC[C@H]2C3=CC(=O)[C@H]4CC(=CC[C@H](O)C4)[C@H]3CC[C@]12C)[C@H](C)O,IC50,A-431,> 20 µM
same,IC50,A549,> 20 µM
same,IC50,MDA-MB-231,> 20 µM
same,IC50,MCF7,> 20 µM
same,IC50,PANC-1,> 20 µM
same,IC50,HepG2,> 20 µM
same,IC50,HCT-116,> 20 µM
same,IC50,NCI-H460,> 20 µM
same,IC50,NCI-H1299,> 20 µM
same,IC50,[1],> 20 µM
same,IC50,BGC-823,> 20 µM
same,IC50,[2],> 20 µM
same,IC50,A-375,> 20 µM
same,IC50,U2OS,> 20 µM
same,IC50,HL-60,> 20 µM
same,IC50,K562,> 20 µM
same,IC50,KYSE-450,> 20 µM
same,IC50,PC-3,> 20 µM
CC(=O)OC(/C=C(\C)[C@H]1CC[C@H]2C3=CC(=O)[C@H]4CC(=CC[C@H](O)C4)[C@H]3CC[C@]12C)C(C)O (some centres not stated),IC50,A-431,> 20 µM
same,IC50,A549,> 20 µM
same,IC50,MDA-MB-231,> 20 µM
same,IC50,MCF7,> 20 µM
same,IC50,PANC-1,> 20 µM
same,IC50,HepG2,> 20 µM
same,IC50,HCT-116,> 20 µM
same,IC50,NCI-H460,> 20 µM
same,IC50,NCI-H1299,> 20 µM
same,IC50,[1],> 20 µM
same,IC50,BGC-823,> 20 µM
same,IC50,[2],> 20 µM
same,IC50,A-375,> 20 µM
same,IC50,U2OS,> 20 µM
same,IC50,HL-60,> 20 µM
same,IC50,K562,> 20 µM
same,IC50,KYSE-450,> 20 µM
same,IC50,PC-3,> 20 µM
CC(=O)/C=C/[C@](C)(O)[C@H]1CC[C@H]2C3=CC(=O)[C@H]4CC(=CC[C@H](O)C4)[C@H]3CC[C@@]21C,IC50,A-431,> 20 µM
same,IC50,A549,> 20 µM
same,IC50,MDA-MB-231,> 20 µM
same,IC50,MCF7,> 20 µM
same,IC50,PANC-1,> 20 µM
same,IC50,HepG2,> 20 µM
same,IC50,HCT-116,> 20 µM
same,IC50,NCI-H460,> 20 µM
same,IC50,NCI-H1299,> 20 µM
same,IC50,[1],> 20 µM
same,IC50,BGC-823,> 20 µM
same,IC50,[2],> 20 µM
same,IC50,A-375,> 20 µM
same,IC50,U2OS,> 20 µM
same,IC50,HL-60,> 20 µM
same,IC50,K562,> 20 µM
same,IC50,KYSE-450,> 20 µM
same,IC50,PC-3,> 20 µM
CC(=O)/C=C/[C@@](C)(O)[C@H]1CC[C@H]2C3=CC(=O)[C@H]4CC(=CC[C@H](O)C4)[C@H]3CC[C@@]21C,IC50,A-431,> 20 µM
same,IC50,A549,> 20 µM
same,IC50,MDA-MB-231,> 20 µM
same,IC50,MCF7,> 20 µM
same,IC50,PANC-1,> 20 µM
same,IC50,HepG2,> 20 µM
same,IC50,HCT-116,> 20 µM
same,IC50,NCI-H460,> 20 µM
same,IC50,NCI-H1299,> 20 µM
same,IC50,[1],> 20 µM
same,IC50,BGC-823,> 20 µM
same,IC50,[2],> 20 µM
same,IC50,A-375,> 20 µM
same,IC50,U2OS,> 20 µM
same,IC50,HL-60,> 20 µM
same,IC50,K562,> 20 µM
same,IC50,KYSE-450,> 20 µM
same,IC50,PC-3,> 20 µM
C/C(=C\[C@@H](O)[C@H](C)O)[C@H]1CC[C@H]2C3=CC(=O)[C@H]4CC(=CC[C@H](O)C4)[C@H]3CC[C@]12C [NEOCYCLOCITRINOL C],IC50,A-431,> 20 µM
same,IC50,A549,> 20 µM
same,IC50,MDA-MB-231,> 20 µM
same,IC50,MCF7,> 20 µM
same,IC50,PANC-1,> 20 µM
same,IC50,HepG2,> 20 µM
same,IC50,HCT-116,> 20 µM
same,IC50,NCI-H460,> 20 µM
same,IC50,NCI-H1299,> 20 µM
same,IC50,[1],> 20 µM
same,IC50,BGC-823,> 20 µM
same,IC50,[2],> 20 µM
same,IC50,A-375,> 20 µM
same,IC50,U2OS,> 20 µM
same,IC50,HL-60,> 20 µM
same,IC50,K562,> 20 µM
same,IC50,KYSE-450,> 20 µM
same,IC50,PC-3,> 20 µM
same,Activity,BMSC [3],Active
same,minimal effective concentration,[4],5 µM
same,Activity,BMSC [5],Dose-Dependent Effect
same,inhibition at 5 µM,[6],78%
C/C=C/[C@@H](O)[C@](C)(O)[C@H]1CC[C@H]2C3=CC(=O)[C@H]4CC(=CC[C@H](O)C4)[C@H]3CC[C@]12C,IC50,A-431,> 20 µM
same,IC50,A549,> 20 µM
same,IC50,MDA-MB-231,> 20 µM
same,IC50,MCF7,> 20 µM
same,IC50,PANC-1,> 20 µM
same,IC50,HepG2,> 20 µM
same,IC50,HCT-116,> 20 µM
same,IC50,NCI-H460,> 20 µM
same,IC50,NCI-H1299,> 20 µM
same,IC50,[1],> 20 µM
same,IC50,BGC-823,> 20 µM
same,IC50,[2],> 20 µM
same,IC50,A-375,> 20 µM
same,IC50,U2OS,> 20 µM
same,IC50,HL-60,> 20 µM
same,IC50,K562,> 20 µM
same,IC50,KYSE-450,> 20 µM
same,IC50,PC-3,> 20 µM
C/C=C/[C@H](O)[C@](C)(O)[C@H]1CC[C@H]2C3=CC(=O)[C@H]4CC(=CC[C@H](O)C4)[C@H]3CC[C@]12C,IC50,A-431,> 20 µM
same,IC50,A549,> 20 µM
same,IC50,MDA-MB-231,> 20 µM
same,IC50,MCF7,> 20 µM
same,IC50,PANC-1,> 20 µM
same,IC50,HepG2,> 20 µM
same,IC50,HCT-116,> 20 µM
same,IC50,NCI-H460,> 20 µM
same,IC50,NCI-H1299,> 20 µM
same,IC50,[1],> 20 µM
same,IC50,BGC-823,> 20 µM
same,IC50,[2],> 20 µM
same,IC50,A-375,> 20 µM
same,IC50,U2OS,> 20 µM
same,IC50,HL-60,> 20 µM
same,IC50,K562,> 20 µM
same,IC50,KYSE-450,> 20 µM
same,IC50,PC-3,> 20 µM
